Measured values as given in patent EP1333824B1, “TREATMENT OF SEXUAL DYSFUNCTION WITH BOMBESIN RECEPTOR ANTAGONISTS” (Warner-Lambert Company LLC, priority 2000, dated 2002).

How the values were obtained:
[1] = test system: Ovariectomised adult female Sprague Dawley rats; experiment: Female rat sexual receptivity test (lordosis quotient, LQ); format: in vivo; conditions: for lordosis quotient (LQ): quinelorane 6.25µg/kg s.c. 90min
Protocol: Ovariectomised adult female Sprague Dawley rats (180-200g, from Charles River) were housed in groups of 6 in a reversed lighting system of 12h light:dark (lights off 7.00-19.00h). Two weeks after ovariectomy they were used for sexual activity tests. The experiments started at least 5h into the dark period.
It was administered intraperitoneally (i.p.) at a dose of 10mg/kg, in a dosing volume of 1ml/kg. […] Forty eight hours before testing, ovariectomised female rats (as described above), were primed with 5µg oestradiol benzoate dissolved in corn oil and injected subcutaneously. […] The females were placed with a series of vigorous male rats and subjected to 10 mounts.
The lordotic response of the animal was recorded and expressed as a percentage of the mounts (i.e. lordosis quotient, LQ), as previously described. Animals showing LQ<20 were considered non-receptive and were included in the study. Each rat was tested prior to administration of the compound and then tested similarly post-injection.
The above compound was dissolved in PEG200 vehicle and administered orally. […] Both compounds were administered in a 1ml/kg volume.
Forty eight hours before tests, the animals were primed with 5µg oestradiol benzoate (Sigma Chemical. Co. Ltd., UK) dissolved in corn oil and injected subcutaneously. The females were placed with a series of vigorous male rats and subjected to 10 mounts. The lordotic response of the animal was recorded and expressed as a percentage of the mounts (i.e. lordosis quotient, LQ). […] Animals showing higher LQ were not included in the study. Each rat was tested prior to administration of the compound and then tested similarly at 1h and 90min post-injection of the above compound or quinelorane respectively.

[2] = test system: Ovariectomised adult female Sprague Dawley rats; experiment: Female rat sexual proceptivity test (time investigating male vs female stimulus); format: in vivo
Sprague Dawley male rats [3] = experiment: Sexual behaviour of normal (sexually vigorous) male rats; format: in vivo, rat; conditions: Compound (1) 15mg/kg or Fluoxetine 20mg/kg i.p. 1h before tests, vs vehicle
Protocol: Sprague Dawley male rats (Charles River, UK) were kept, 4 rats per cage, in a reversed lighting regime (12:12 hours, lights off at 5.00 h), with free access to food and water. The rats were pre-selected by being presented with a receptive female at 4 days intervals, i.e. every third day (having 2 clear days between presentations) until completing 6-7 days of baseline determination. The animals showing consistently vigorous behaviour (ejaculatory latencies <300s) were chosen for further experiments (n=24). Animals were randomised into three groups. All animals received all three treatments following a latin-square design. Treatments were administered once a week, with a baseline test in between treatments (4 days intervals between baseline and test day). […] All treatments were administered i.p. in a 1ml/kg volume, 1h before tests.
For all the sexual behaviour tests, the males were placed in an observation arena (50-60 cm diameter), starting 5 hours into the dark cycle and observed under red illumination. Three to 4 minutes after placing the male in the arena, a receptive female (ovariectomised, bearing a 7 mm Silastic implant of oestradiol benzoate) was introduced to the arena and the following parameters noted: Mount Latency: time (in seconds) taken between introduction of female and first mount. A maximum time of 15 minutes (900 seconds) was allowed, and the test terminated if no mounts were recorded within that time (Figure 11), Intromission Latency: time (in seconds) taken between introduction of female and first intromission (Figure 12), Number of Mounts: to reach ejaculation. When ejaculation was not reached, the number of mounts was not analyzed, Number of Intromissions: to reach ejaculation. When ejaculation was not reached, the number of intromissions was not analyzed (Figure 13 is number of mounts + intromissions), Ejaculation Latency: time (in seconds) taken from first intromission to ejaculation. A maximum time of 30 minutes (1800 seconds) was given, and the test terminated if ejaculation was not achieved in that time (Figure 14), and Refractory Period: time (in seconds) taken from ejaculation to the first mount of the next series of sexual activity. In those animals reaching ejaculation the test was terminated at the end of the refractory period, as indicated by the first mount of the next sexual cycle (Figure 15).
A one-way ANOVA followed by Dunnett's t test was used to compare treated vs vehicle groups each day of testing, for all the sexual behaviour parameters.

Sprague Dawley male rats [4] = experiment: Sexual behaviour of fluoxetine-induced sexually dysfunctional male rats; format: in vivo, rat; conditions: fluoxetine 20mg/kg i.p. 3 days (vs vehicle+vehicle)
Protocol: Sprague Dawley male rats (Charles River, UK) were kept, 4 rats per cage, in a reversed lighting regime (12:12 hours, lights off at 5.00 h), with free access to food and water. The rats were pre-selected by being presented with a receptive female at 4 days intervals, i.e. every third day (having 2 clear days between presentations) until completing 6-7 trials of baseline determination. The animals showing consistently vigorous behaviour (ejaculatory latencies <300s) were chosen for further experiments. Animals were treated for 3 consecutive days with either vehicle (water) or fluoxetine (20mg/kg, i.p., in a 2ml/kg dosing volume). […] All treatments were administered i.p. in a 1ml/kg volume, 1h before tests.
For all the sexual behaviour tests, the males were placed in an observation arena (50-60 cm diameter), starting 5 hours into the dark cycle and observed under red illumination. Three to 4 minutes after placing the male in the arena, a receptive female (ovariectomised, bearing a 7 mm Silastic implant of oestradiol benzoate) was introduced to the arena and the following parameters noted: Mount Latency: time (in seconds) taken between introduction of female and first mount. A maximum time of 15 minutes (900 seconds) was allowed, and the test terminated if no mounts were recorded within that time (Figure 16), Ejaculation Latency: time (in seconds) taken from first intromission to ejaculation. A maximum time of 30 minutes (1800 seconds) was given, and the test terminated if ejaculation was not achieved in that time (Figure 17), Percentage of males achieving ejaculation within 30 minutes was calculated (Figure 18).
A one-way ANOVA followed by Dunnett's t test was used to compare the fluoxetine+vehicle group and other groups for mount and ejaculatory latencies. Percentage of animals ejaculating was analysed using a Chi-square test followed by Fisher's test. (*: P<0.05, **: P<0.01, ***: P<0.001; n=15-19).

[5] = Example 31, after vs before administration, Compound (2) oral 10-100mg/kg in PEG200, 1h
[6] = day 4 Compound (1) 15mg/kg or yohimbine 2mg/kg i.p. 1h before tests (vs fluoxetine+vehicle)

COc1ccc(C2(CNC(=O)[C@](C)(Cc3c[nH]c4ccccc34)Nc3nc(-c4ccc([N+](=O)[O-])cc4)co3)CCCCC2)nc1 [Example 9, (S)-3-(1H-Indol-3-yl)-N-[1-(5-methoxy-pyridin-2-yl)-cyclohexylmethyl]-2-methyl-2-[4-(4-nitro-phenyl)-oxazol-2-ylamino]-propionamide]
lordosis quotient (LQ) [1, 5]: increased the LQ | minimal effective dose ([1]; Rattus norvegicus, Example 31, single oral administration in PEG200, 1h after administration, P<0.01, read-out: MED (increase in LQ)): 100 mg/kg | MED (increase in percentage of time spent investigating the male stimulus) ([2]; Example 29, oral, 30-100mg/kg in PEG 200 vehicle, 1h before test): 100 mg/kg | percentage of time spent investigating the male stimulus ([2]; Example 29, oral, dose-dependent 30-100mg/kg in PEG 200, 1h before test): increased the percentage of time spent investigating the male stimulus | increase in potency compared to the oral results obtained in the PEG200 vehicle ([2]; Example 30, methyl cellulose MED vs PEG200 MED): 10 fold | MED (increase in percentage of time spent investigating the male stimulus) ([2]; Example 30, p.o., 3-30mg/kg in 0.5% methyl cellulose, 1h before tests): 10 mg/kg | percentage of time spent investigating the male stimulus ([2]; Example 30, p.o., dose-dependent 3-30mg/kg in 0.5% methyl cellulose): increased the percentage of time spent investigating the male stimulus

CNCCC(Oc1ccc(C(F)(F)F)cc1)c1ccccc1 (centres unmarked) [fluoxetine, reference compound]
Ejaculation latency (Sprague Dawley male rats [3]): also increased | Intromission latency (Sprague Dawley male rats [3]): significantly increased | Mount latency (Sprague Dawley male rats [3]): significantly increased | Refractory period (Sprague Dawley male rats [3]): also increased | number of mounts and intromissions required to achieve ejaculation (Sprague Dawley male rats [3]): No changes | Ejaculation latency (Sprague Dawley male rats [4]; [6]): significantly increased | Mount latency (Sprague Dawley male rats [4]; [6]): significantly increased | percentage of animals ejaculating (Sprague Dawley male rats [4]; within 30 minutes, day 4 Compound (1) 15mg/kg or yohimbine 2mg/kg i.p. (vs fluoxetine+vehicle)): significantly lower

CCCN1CCC[C@@H]2Cc3nc(N)ncc3C[C@H]21 [quinelorane, reference compound]
lordosis quotient (LQ) ([1]; Example 2, after vs before administration (paired t test), Compound (1) 10mg/kg i.p. 1h): significantly (P<0.01) increased the LQ | lordosis quotient (LQ) [1, 5]: significantly (P<0.01) increased the LQ
